Results on 19 compounds are retold here after patent US20260242353A1, “HETEROARYL DERIVATIVES AS DDRs INHIBITORS” (CHIESI FARMACEUTICI S.P.A., priority 2022, published 2026).

One experiment has as its target T1, DDR2 (Homo sapiens, UniProt Q16832).
T1 construct: purchased Life Technologies
T1 sequence (Q16832 22-855): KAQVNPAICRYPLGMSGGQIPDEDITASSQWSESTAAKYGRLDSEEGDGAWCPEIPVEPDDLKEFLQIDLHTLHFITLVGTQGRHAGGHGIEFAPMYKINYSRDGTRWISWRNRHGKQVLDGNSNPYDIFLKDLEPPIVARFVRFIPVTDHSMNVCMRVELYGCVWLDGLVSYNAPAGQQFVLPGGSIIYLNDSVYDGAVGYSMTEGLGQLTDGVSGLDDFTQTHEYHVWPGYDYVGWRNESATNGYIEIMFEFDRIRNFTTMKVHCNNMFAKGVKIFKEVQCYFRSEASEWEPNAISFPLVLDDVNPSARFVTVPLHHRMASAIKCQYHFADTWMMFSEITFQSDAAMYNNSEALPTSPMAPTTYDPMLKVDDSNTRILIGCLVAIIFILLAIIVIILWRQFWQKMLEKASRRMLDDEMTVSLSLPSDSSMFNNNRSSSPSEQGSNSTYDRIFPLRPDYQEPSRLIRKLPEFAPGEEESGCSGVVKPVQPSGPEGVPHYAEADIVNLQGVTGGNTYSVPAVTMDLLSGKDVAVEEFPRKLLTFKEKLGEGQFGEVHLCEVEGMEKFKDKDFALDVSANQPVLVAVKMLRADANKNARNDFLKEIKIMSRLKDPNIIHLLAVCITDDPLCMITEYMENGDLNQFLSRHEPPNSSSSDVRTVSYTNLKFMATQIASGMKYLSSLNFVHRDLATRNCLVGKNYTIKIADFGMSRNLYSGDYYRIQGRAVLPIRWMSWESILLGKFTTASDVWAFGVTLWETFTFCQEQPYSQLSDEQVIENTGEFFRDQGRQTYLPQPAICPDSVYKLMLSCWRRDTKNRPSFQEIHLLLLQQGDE
In words: LanthaScreen Europium Kinase Binding assay, DDR2. The conditions noted are these: 5 nM DDR2, 10 nM Kinase Tracer 178, 1 h at rt; Ki from IC50 by Cheng-Prusoff; read-out: Ki DDR2. The method, boiled down: (§1)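 Compounds were incubated 1 h at rt with 5 nM DDR1 plus 20 nM Kinase Tracer 178, or 5 nM DDR2 plus 10 nM tracer, and 2 nM Eu anti-GST antibody in HEPES pH 7.5 buffer. Read-out was the TR-FRET 665/615 nm ratio. IC50 came from a 4-parameter fit and was converted to Ki by Cheng-Prusoff.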

The next experiment concerns the target T2, DDR1 (Homo sapiens, UniProt Q08345).
T2 construct: purchased Carna Biosciences
In words: LanthaScreen Europium Kinase Binding assay, DDR1. The conditions noted are these: 5 nM DDR1, 20 nM Kinase Tracer 178, 1 h at rt; Ki from IC50 by Cheng-Prusoff; read-out: Ki DDR1. Summed up: as §1

T2 sequence (Q08345 19-913): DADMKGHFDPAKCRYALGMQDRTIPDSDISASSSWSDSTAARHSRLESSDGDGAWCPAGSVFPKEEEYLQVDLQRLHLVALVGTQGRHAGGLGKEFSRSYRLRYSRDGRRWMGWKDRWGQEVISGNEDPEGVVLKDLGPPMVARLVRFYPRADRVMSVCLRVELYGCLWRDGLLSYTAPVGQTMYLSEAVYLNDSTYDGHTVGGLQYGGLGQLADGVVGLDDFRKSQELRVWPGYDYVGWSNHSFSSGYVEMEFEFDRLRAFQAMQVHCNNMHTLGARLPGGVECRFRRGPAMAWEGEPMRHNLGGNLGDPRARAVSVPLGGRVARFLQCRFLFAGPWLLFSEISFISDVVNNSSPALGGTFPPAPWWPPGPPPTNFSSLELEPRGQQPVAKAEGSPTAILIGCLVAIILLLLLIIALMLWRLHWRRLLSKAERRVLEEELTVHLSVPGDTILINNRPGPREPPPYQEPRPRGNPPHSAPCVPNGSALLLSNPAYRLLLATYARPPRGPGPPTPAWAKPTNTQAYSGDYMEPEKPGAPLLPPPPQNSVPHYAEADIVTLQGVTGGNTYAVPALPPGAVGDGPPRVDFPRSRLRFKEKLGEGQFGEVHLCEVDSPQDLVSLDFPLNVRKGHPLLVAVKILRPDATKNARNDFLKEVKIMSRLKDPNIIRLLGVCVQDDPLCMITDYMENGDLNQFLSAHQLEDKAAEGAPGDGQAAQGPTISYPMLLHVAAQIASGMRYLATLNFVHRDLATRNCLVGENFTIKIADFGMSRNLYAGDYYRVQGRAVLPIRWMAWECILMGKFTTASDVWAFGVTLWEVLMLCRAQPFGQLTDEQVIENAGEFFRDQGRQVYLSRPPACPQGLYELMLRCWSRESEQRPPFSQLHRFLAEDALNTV

On to `COc1ccc(C(=O)Nc2cncc(C(F)(F)F)c2)cc1C1CCN(c2cncnc2)C1` (single isomer, unassigned) [Example 109, 4-methoxy-3-(1-(pyrimidin-5-yl)pyrrolidin-3-yl)-N-(5-(trifluoromethyl)pyridin-3-yl)benzamide], for which the Ki at DDR2 and on DDR1 was < 5 nM in each case.
Consider `Cc1ccc(C(=O)Nc2cncc(C(F)(F)F)c2)cc1[C@H]1CCN(c2cncc(C(N)=O)c2)C1` [Example 2, (R)-5-(3-(2-methyl-5-((5-(trifluoromethyl)pyridin-3-yl)carbamoyl)phenyl)pyrrolidin-1-yl)nicotinamide], for which the Ki is 5 to 25 nM at DDR2 and < 5 nM on DDR1.
Taken in the same sequence, the figures for `Cn1nc(NC(=O)c2ccc(C(F)F)c(C3CCN(c4cncnc4)C3)c2)cc1C(C)(C)C` (centres unmarked) [Example 124, N-(5-(tert-butyl)-1-methyl-1H-pyrazol-3-yl)-4-(difluoromethyl)-3-(1-(pyrimidin-5-yl)pyrrolidin-3-yl)benzamide] were 5 to 25 nM and < 5 nM.
Taken in the same sequence, the figures for `CCc1cc(NC(=O)c2ccc(C)c([C@@H]3CCN(c4cnn5ccncc45)C3)c2)no1` [Example 96, (S)-N-(5-ethylisoxazol-3-yl)-4-methyl-3-(1-(pyrazolo[1,5-a]pyrazin-3-yl)pyrrolidin-3-yl)benzamide] were < 5 nM and < 5 nM.
For `Cc1ccc(C(=O)Nc2cncc(C(F)(F)F)c2)cc1[C@@H]1CCN(c2cncc(C#N)c2)C1` [Example 27, (S)-3-(1-(5-cyanopyridin-3-yl)pyrrolidin-3-yl)-4-methyl-N-(5-(trifluoromethyl)pyridin-3-yl)benzamide] the same measures were < 5 nM and < 5 nM.
With `Cc1ccc(C(=O)Nc2cc(C(C)(C)C)on2)cc1[C@@H]1CCN(c2cncnc2)C1` [Example 16, (S)-N-(5-(tert-butyl)isoxazol-3-yl)-4-methyl-3-(1-(pyrimidin-5-yl)pyrrolidin-3-yl)benzamide], the Ki on DDR2 and on DDR1 was < 5 nM in each case.
`Cc1ccc(C(=O)Nc2cncc(C(F)(F)F)c2)cc1[C@@H]1CCN(c2cnc3[nH]nc(CN(C)C)c3c2)C1` [Example 101, (S)-3-(1-(3-((dimethylamino)methyl)-1H-pyrazolo[3,4-b]pyridin-5-yl)pyrrolidin-3-yl)-4-methyl-N-(5-(trifluoromethyl)pyridin-3-yl)benzamide]: the Ki at DDR2 was 5 to 25 nM; on DDR1, < 5 nM.
Taken in the same sequence, the figures for `Cc1ccc(C(=O)Nc2cc(C3CC3)nn2C)cc1[C@@H]1CCN(c2cncnc2)C1` [Example 70, (S)-N-(3-cyclopropyl-1-methyl-1H-pyrazol-5-yl)-4-methyl-3-(1-(pyrimidin-5-yl)pyrrolidin-3-yl)benzamide] were 25 to 100 nM and 5 to 25 nM.
For the compound `Cc1ccc(C(=O)Nc2cncc(C(F)(F)F)c2)cc1[C@@H]1CCN(c2cnc3[nH]ncc3c2)C1` [Example 43, 4-methyl-3-[(3S)-1-(1H-pyrazolo[3,4-b]pyridin-5-yl)pyrrolidin-3-yl]-N-[5-(trifluoromethyl)-3-pyridyl]benzamide], the Ki on DDR2 and on DDR1 was < 5 nM in each case.
With `Cc1ccc(C(=O)Nc2cc(OC(F)F)ccn2)cc1[C@@H]1CCN(c2cnccc2C#N)C1` [Example 93, 3-[(3S)-1-(4-cyano-3-pyridyl)pyrrolidin-3-yl]-N-[4-(difluoromethoxy)-2-pyridyl]-4-methyl-benzamide], the Ki on DDR2 and at DDR1 was < 5 nM throughout.
With `Cc1ccc(C(=O)Nc2cc(C(C)(C)C(F)(F)F)on2)cc1[C@@H]1CCN(c2cncnc2)C1` [Example 14, (S)-4-methyl-3-(1-(pyrimidin-5-yl)pyrrolidin-3-yl)-N-(5-(1,1,1-trifluoro-2-methylpropan-2-yl)isoxazol-3-yl)benzamide], the Ki at DDR2 and at DDR1 was < 5 nM in each case.
For the compound `Cc1ccc(C(=O)Nc2cncc(C(F)(F)F)c2)cc1[C@@H]1CCN(c2cnc3ccc(N4CCN(CC#N)CC4)cn23)C1` [Example 73, (S)-3-(1-(6-(4-(cyanomethyl)piperazin-1-yl)imidazo[1,2-a]pyridin-3-yl)pyrrolidin-3-yl)-4-methyl-N-(5-(trifluoromethyl)pyridin-3-yl)benzamide], the values for the Ki at DDR2 and on DDR1 were 5 to 25 nM and < 5 nM, respectively.
Regarding `Cc1ccc(C(=O)Nc2cc(C(C)(C)C)n(C)n2)cc1[C@@H]1CCN(c2cncnc2)C1` [Example 13, (S)-N-(5-(tert-butyl)-1-methyl-1H-pyrazol-3-yl)-4-methyl-3-(1-(pyrimidin-5-yl)pyrrolidin-3-yl)benzamide], the inhibition constant (Ki) at DDR2 and on DDR1 was < 5 nM each time.
Take `Cc1ccc(C(=O)Nc2cncc(C(F)(F)F)c2)cc1N1CC(Oc2cncc(N)c2)C1` [Example 47, 3-(3-((5-aminopyridin-3-yl)oxy)azetidin-1-yl)-4-methyl-N-(5-(trifluoromethyl)pyridin-3-yl)benzamide]: the Ki on DDR2 and on DDR1 was 5 to 25 nM in each case.
Consider `NC(=O)c1cc(N2CCC(c3cc(C(=O)Nc4cncc(C(F)(F)F)c4)ccc3OC(F)F)C2)ccn1` (single isomer, unassigned) [Example 118, 4-(3-(2-(difluoromethoxy)-5-((5-(trifluoromethyl)pyridin-3-yl)carbamoyl)phenyl)pyrrolidin-1-yl)picolinamide], for which the Ki on DDR2 is 5 to 25 nM; on DDR1, < 5 nM.
With `Cc1ccc(C(=O)Nc2cncc(C(F)(F)F)c2)cc1[C@@H]1CCN(c2cnn3ccc(C(=O)N4CCOCC4)cc23)C1` [Example 89, (S)-4-methyl-3-(1-(5-(morpholine-4-carbonyl)pyrazolo[1,5-a]pyridin-3-yl)pyrrolidin-3-yl)-N-(5-(trifluoromethyl)pyridin-3-yl)benzamide], the Ki on DDR2 is 5 to 25 nM; on DDR1 it was < 5 nM.
Taken in the same sequence, the figures for `Cc1ccc(C(=O)Nc2ccc(OC(F)(F)F)cn2)cc1[C@@H]1CCN(c2cncc(C(N)=O)c2)C1` [Example 10, (S)-5-(3-(2-methyl-5-((5-(trifluoromethoxy)pyridin-2-yl)carbamoyl)phenyl)pyrrolidin-1-yl)nicotinamide] were 5 to 25 nM and < 5 nM.
For `CNC(=O)c1cc(N2CCC(c3cc(C(=O)Nc4cncc(C(F)(F)F)c4)ccc3OC)C2)ccn1` (centres unmarked) [Example 127, 4-(3-(2-methoxy-5-((5-(trifluoromethyl)pyridin-3-yl)carbamoyl)phenyl)pyrrolidin-1-yl)-N-methylpicolinamide] the same measures were 5 to 25 nM and < 5 nM.
Taken in the same sequence, the figures for `Cc1ccc(C(=O)Nc2cncc(C(F)(F)F)c2)cc1[C@@H]1CCN(c2cnc3cnccn23)C1` [Example 37, (S)-3-(1-(imidazo[1,2-a]pyrazin-3-yl)pyrrolidin-3-yl)-4-methyl-N-(5-(trifluoromethyl)pyridin-3-yl)benzamide] were < 5 nM and < 5 nM.

As usually defined, the Ki is the dissociation constant of the complex between target and ligand, obtained from inhibition or displacement.
